Measured values reported in ChEMBL document CHEMBL1201862, “PubChem BioAssay data set” (2004).
The source made the active and inactive calls.

Experiments:
[1] = target: FAD-linked sulfhydryl oxidase ALR (Homo sapiens, UniProt P55789); assay: ALR-catalysed DTT oxidation blockers – biochemical, H2O2 detection, luminescence, cherry-pick, dose response (AID 493248)
[2] = target: T1, Mannose-6-phosphate isomerase (Homo sapiens, UniProt P34949); assay: MPI inhibition at elevated mannose 6-phosphate – biochemical, fluorescence intensity, high mannose 6-phosphate, primary screen (AID 1220)
T1 sequence (P34949 whole entry): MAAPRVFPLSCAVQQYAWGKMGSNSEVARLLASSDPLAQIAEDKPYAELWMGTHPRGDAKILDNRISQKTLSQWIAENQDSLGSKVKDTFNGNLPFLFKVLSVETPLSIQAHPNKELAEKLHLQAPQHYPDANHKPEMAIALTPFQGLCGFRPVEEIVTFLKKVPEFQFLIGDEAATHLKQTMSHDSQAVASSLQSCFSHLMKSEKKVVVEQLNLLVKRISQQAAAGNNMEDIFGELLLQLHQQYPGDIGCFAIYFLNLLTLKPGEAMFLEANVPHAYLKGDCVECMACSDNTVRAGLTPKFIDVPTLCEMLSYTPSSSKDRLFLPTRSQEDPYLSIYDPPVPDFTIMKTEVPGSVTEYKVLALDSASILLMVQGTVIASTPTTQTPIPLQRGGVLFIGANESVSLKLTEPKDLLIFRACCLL

[3] = target: T2, Ubiquitin-conjugating enzyme E2 N (Homo sapiens, UniProt P61088); type: functional;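 further: Dose-response confirmation in a TR-FRET assay detecting UBC13-driven polyubiquitin chain formation, inhibition measured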
T2 sequence (P61088 whole entry): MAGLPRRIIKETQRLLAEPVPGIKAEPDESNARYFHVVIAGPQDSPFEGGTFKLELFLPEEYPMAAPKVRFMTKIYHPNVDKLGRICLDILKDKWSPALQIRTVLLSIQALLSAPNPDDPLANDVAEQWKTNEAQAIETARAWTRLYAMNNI

[4] = NIH-3T3 fibroblast cytotoxicity, dose response, cytotoxicity control, cell-based, fluorescence, Alamar Blue, secondary assay (AID 2327); type: functional;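 further: NIH-3T3 mouse fibroblasts cultured with fluconazole at 8 µg/mL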
[5] = fluconazole-exposed Candida albicans growth modulators – fluorescence, retest, confirmation (AID 2467); type: functional, cell-based
[6] = system: Streptococcus sp. 'group A'; assay: Streptococcus pyogenes SK(-)GAS viability under kanamycin – luminescence, BacTiterGlo, confirmation, counter-screen for streptokinase expression inhibitor project, dose response (AID 1900); type: functional, organism-based
Streptokinase A = target: T3, Streptokinase A (Streptococcus pyogenes serotype M1, UniProt P10520); assay: viability-normalized secreted streptokinase activity reduction – plasminogen activation absorbance, OD405, dose response (AID 1914); type: functional, Streptococcus pyogenes M1 GAS;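 further: secreted streptokinase activity via plasminogen activation per viability signal from cell pellet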
T3 sequence (P10520 whole entry): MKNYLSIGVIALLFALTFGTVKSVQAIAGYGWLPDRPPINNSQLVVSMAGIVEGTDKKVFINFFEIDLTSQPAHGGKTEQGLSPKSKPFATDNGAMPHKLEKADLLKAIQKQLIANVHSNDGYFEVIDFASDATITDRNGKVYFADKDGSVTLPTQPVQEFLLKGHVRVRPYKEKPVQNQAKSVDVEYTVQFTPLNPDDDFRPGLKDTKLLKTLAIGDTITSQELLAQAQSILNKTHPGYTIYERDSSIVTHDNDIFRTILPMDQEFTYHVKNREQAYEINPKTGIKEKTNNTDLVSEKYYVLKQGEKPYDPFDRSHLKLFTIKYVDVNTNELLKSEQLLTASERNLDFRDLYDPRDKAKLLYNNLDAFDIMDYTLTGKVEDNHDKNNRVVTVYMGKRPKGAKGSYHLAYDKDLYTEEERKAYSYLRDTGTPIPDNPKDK

Streptococcus = assay: GAS UMAA2166 growth inhibition – luminescence, BacTiterGlo, counter-screen for streptokinase expression inhibitor project, dose response (AID 1915); type: functional, organism-based;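 further: potency for reduction of bacterial viability or growth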
Nonstructural protein 1 = Nonstructural protein 1 (Influenza A virus, UniProt Q194T2); type: functional, Influenza A virus (A/California/07/2009(H1N1))
Sequence of Nonstructural protein 1 (Q194T2 whole entry): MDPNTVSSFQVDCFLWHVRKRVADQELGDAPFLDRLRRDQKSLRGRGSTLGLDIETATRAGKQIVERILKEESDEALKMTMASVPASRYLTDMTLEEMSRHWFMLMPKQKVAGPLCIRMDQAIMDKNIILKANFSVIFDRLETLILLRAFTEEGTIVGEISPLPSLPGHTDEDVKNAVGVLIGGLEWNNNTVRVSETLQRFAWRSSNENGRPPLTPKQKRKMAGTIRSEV

[7] = reduction of Shn3 3'UTR-driven luciferase in osteoblasts – cell-based, Clone20 osteoblasts, firefly luciferase, cherry-picked, dose response (AID 624132); type: functional;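 further: firefly luciferase luminescence from reporter carrying the Shn3 3'UTR in osteoblasts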
[8] = loss of viability in HepG2 cells – cell-based, CellTiter-Glo, cherry-picked, cytotoxicity control for Shn3 inhibitor project, dose response (AID 624134); type: functional
[9] = non-specific 3'UTR reporter inhibition in Clone20-Shn3RL – cell-based, Renilla luciferase, cherry-picked, counter-screen for Shn3 inhibitor project, dose response (AID 624133); type: functional
[10] = target: Luciferin 4-monooxygenase (Photinus pyralis, UniProt P08659); assay: inhibition of purified Photinus pyralis luciferase – biochemical, luminescence, dose response (AID 1891)
Sequence of Luciferin 4-monooxygenase (P08659 whole entry): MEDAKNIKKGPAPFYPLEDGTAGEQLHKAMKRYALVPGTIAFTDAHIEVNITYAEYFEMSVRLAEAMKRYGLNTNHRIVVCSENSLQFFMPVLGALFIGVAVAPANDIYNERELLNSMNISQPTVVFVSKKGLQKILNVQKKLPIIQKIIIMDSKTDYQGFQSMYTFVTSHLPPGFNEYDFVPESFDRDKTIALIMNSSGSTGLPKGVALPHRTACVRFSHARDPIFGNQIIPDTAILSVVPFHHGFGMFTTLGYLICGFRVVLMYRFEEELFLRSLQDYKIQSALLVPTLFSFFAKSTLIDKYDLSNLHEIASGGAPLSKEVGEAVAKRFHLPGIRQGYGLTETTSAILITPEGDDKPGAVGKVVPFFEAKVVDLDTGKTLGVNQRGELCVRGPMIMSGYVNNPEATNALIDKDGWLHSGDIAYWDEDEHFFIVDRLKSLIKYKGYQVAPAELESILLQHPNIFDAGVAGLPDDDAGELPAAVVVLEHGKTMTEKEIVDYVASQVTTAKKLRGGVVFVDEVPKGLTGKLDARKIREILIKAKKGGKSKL

[11] = Luminescence Cell-Based Dose Confirmation HTS to Identify Inhibitors of Platelet Dense Granule Release. [Related pubchem assays: 1663 (Primary HTS), 1678 (Summary of Project)]; type: functional
[12] = target: T4, Rac GTPase-activating protein 1 (Homo sapiens, UniProt Q9H0H5); assay: blockers of MgcRacGAP-driven Rac1 GTP hydrolysis – biochemical, ADP Hunter fluorescence, primary and confirmatory, confirmation (AID 624330); type: functional
T4 sequence (Q9H0H5 whole entry): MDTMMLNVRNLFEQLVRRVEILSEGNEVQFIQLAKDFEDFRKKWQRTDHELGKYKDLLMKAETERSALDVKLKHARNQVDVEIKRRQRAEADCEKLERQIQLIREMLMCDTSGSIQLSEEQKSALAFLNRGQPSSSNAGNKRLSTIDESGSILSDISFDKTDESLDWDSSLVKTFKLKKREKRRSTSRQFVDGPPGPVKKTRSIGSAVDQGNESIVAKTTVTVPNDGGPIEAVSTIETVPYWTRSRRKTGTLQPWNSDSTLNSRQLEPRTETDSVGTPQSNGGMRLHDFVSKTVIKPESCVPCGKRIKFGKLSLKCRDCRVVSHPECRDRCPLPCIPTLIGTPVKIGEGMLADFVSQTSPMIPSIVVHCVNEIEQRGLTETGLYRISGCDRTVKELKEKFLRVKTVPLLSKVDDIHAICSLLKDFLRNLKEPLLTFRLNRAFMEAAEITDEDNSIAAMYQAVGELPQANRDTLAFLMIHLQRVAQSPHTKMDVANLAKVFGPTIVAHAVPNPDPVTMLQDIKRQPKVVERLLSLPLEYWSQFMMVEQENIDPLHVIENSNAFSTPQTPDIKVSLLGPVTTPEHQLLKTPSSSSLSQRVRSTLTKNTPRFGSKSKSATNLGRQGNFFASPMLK

[13] = Luminescence Cell-Based Dose Retest to Confirm Inhibitors of Cancer Stem Cells. [Related pubchem assays (depositor defined):AID2717, AID2721]; type: functional; conditions: Homo sapiens
[14] = target: T5, Polyadenylate-binding protein 1 (Homo sapiens, UniProt P11940); assay: MLLE binding blockers, Cy5 peptide tracer – biochemical, fluorescence polarization, Cy5-PAM2 peptide, secondary, miRNA deadenylation inhibitor project, dose response (AID 602260); type: functional; conditions: read-out: IC50_Mean
T5 sequence (P11940 whole entry, the tested form may be a part): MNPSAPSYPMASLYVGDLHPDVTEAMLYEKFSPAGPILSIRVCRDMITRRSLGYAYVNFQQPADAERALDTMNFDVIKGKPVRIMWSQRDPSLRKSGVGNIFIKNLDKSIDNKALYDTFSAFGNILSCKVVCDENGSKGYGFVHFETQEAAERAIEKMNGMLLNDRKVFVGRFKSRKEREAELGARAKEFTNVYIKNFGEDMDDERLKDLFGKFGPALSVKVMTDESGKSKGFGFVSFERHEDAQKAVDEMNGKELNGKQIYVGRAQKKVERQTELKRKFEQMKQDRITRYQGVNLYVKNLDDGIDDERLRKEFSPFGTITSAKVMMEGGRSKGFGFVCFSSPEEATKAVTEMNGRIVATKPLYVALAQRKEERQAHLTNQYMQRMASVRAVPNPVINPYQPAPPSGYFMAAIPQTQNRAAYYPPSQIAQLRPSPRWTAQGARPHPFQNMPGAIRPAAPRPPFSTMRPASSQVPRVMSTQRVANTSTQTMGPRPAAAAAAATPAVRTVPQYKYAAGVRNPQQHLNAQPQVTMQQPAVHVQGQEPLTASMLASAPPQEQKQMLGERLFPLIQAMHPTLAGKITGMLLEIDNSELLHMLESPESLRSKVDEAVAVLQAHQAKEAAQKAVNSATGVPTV

[15] = target: T5, Polyadenylate-binding protein 1; assay: MLLE domain peptide-binding blockers, IC50 – biochemical, fluorescence polarization, FITC-PAM2 peptide, dose response (AID 602259); type: functional; conditions: read-out: IC50_Mean
[16] = target: T6, Corticotropin-releasing factor receptor 2/Corticotropin-releasing factor-binding protein (Homo sapiens, UniProt P24387+Q13324); assay: Dose Response confirmation of uHTS hits for small molecule antagonists of the CRF-binding protein and CRF-R2 receptor complex.; type: functional; conditions: read-out: IC50_Mean
T6 sequence (Q13324 whole entry): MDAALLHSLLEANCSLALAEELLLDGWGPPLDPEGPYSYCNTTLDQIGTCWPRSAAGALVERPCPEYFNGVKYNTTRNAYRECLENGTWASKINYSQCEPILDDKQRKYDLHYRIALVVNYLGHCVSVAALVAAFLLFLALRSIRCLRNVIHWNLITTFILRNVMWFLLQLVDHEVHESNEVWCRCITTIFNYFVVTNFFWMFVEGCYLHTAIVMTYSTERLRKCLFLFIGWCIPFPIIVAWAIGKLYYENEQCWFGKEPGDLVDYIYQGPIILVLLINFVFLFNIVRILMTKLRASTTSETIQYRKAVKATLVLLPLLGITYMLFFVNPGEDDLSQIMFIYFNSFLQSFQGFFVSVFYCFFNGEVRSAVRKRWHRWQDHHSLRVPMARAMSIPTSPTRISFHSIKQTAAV
T6 sequence (P24387 whole entry): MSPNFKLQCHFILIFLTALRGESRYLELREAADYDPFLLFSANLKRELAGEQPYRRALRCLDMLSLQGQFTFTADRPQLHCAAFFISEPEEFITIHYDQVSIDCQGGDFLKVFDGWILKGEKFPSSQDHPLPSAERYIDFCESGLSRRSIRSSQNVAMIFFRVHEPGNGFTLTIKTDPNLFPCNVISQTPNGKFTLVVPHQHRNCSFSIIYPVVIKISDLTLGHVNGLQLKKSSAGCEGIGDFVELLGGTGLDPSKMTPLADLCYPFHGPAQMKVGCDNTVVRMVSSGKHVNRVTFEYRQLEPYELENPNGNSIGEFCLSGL

[17] = target: T6, Corticotropin-releasing factor receptor 2/Corticotropin-releasing factor-binding protein; assay: activators of CRF receptor 2 with binding protein – uHTS hits, confirmation (AID 602473); type: functional; conditions: read-out: EC50_Mean
[18] = Trypanosoma cruzi growth suppression in host cells – NIH3T3 host cells, beta-gal luminescence, confirmation (AID 2044); type: functional, cell-based;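 further: intracellular parasites grown in NIH/3T3 mouse fibroblasts as host cells; luminescent beta-galactosidase reporter signal from transgenic T. cruzi replicating inside host cells; inhibitors lower the luminescence signal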
[19] = NIH3T3 cell viability loss – ATP luminescence, mouse fibroblasts, counter-screen, dose response (AID 2010); type: functional, cell-based;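 further: cells exposed to compound for about 90 hours before reading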
[20] = P. falciparum Dd2 growth inhibitors, dose response, SYBR Green, cherry-picked samples (AID 1159567); type: functional, cell-based
[21] = viability of PTEN-deleted HCT116 cells – cell-based, HCT116 PTEN knockout, dose response (AID 1047); type: functional;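 further: HCT116 colon tumor cells with PTEN knocked out; cells exposed to compound for 60 hours before readout; potency for loss of cell viability measured by luminescence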
[22] = viability of HCT116 lacking mutant beta-catenin – cell-based, human colon tumor, dose response (AID 1045); type: functional;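 further: HCT116 colon tumor cells with beta catenin knocked out; cells exposed to compound for 60 hours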

Sequence of FAD-linked sulfhydryl oxidase ALR (P55789 whole entry): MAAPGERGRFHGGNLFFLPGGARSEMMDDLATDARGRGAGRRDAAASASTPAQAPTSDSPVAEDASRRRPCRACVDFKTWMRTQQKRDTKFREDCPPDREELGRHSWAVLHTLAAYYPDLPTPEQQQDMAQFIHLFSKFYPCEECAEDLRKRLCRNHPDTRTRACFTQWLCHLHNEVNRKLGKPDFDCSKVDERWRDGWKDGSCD

Oc1ccc(N2CCN(c3nnnn3-c3ccccc3)CC2)cc1
AC50 [1]: 1.9 µM (active)

CC(=O)N1CCN(S(=O)(=O)c2cccc(C(=O)Nc3ccccc3N3CCCC3)c2)CC1
AC50 [1]: 3.27 µM (active)

CN(C(=S)Nc1ccc(Oc2ccccc2)cc1)c1ccc(O)cc1
IC50 [2]: > 50 µM (not active)

O=C(CCc1ccccc1)NNC(=O)c1ccccn1
IC50 [3]: > 20 µM (inactive)

CC1CN(C(S)=Nc2cccc([N+](=O)[O-])c2)CC(C)O1 (configuration not stated)
EC50 [4]: > 160 µM (inactive)
EC50 [5]: > 38 µM (not active)

O=C(CCS(=O)(=O)c1ccccc1)Nc1nc2cc3c(cc2s1)OCCO3
EC50 [4]: > 160 µM (inactive)
EC50 [6]: 79.6 µM (active)
EC50 (Streptokinase A): > 150 µM (not active)
EC50 [5]: 1.75 µM (active)
EC50 (Streptococcus): > 150 µM (not active)

Oc1cc(-c2ccncc2)cc2cccnc12
IC50 (Nonstructural protein 1): 11.9 µM (active)
AC50 [7]: 5.4 µM (active)
AC50 [8]: 10.9 µM (active)
AC50 [9]: 3.51 µM (active)

CCOc1cc(CNc2ccc3[nH]c(O)nc3c2)ccc1OCC(=O)NC(C)(C)C
EC50 [10]: > 112 µM (not active)
EC50 [11]: 12 µM (active)
IC50 [2]: > 50 µM (not active)
IC50 [12]: 60.2 µM (active)

Nc1c(C(=O)Nc2ccccc2)c2nc3ccccc3nc2n1CCCN1CCOCC1
AC50 [13]: 5.96 µM (active)
IC50 [3]: > 20 µM (inactive)

CCSc1nnc(NC(=O)c2cccc(S(=O)(=O)N(C)c3ccc(C)cc3)c2)s1
AC50 [1]: 1.12 µM (active)

CC1=C(C(N)=O)C(c2ccc(C)o2)C(C(N)=O)=C(C)N1
EC50 [4]: > 160 µM (inactive)
EC50 [5]: > 38 µM (not active)

COc1ccc(NC(=O)CNC(=O)c2nn(-c3ccc(OC)cc3OC)c(=O)c3ccccc23)c(OC)c1
EC50 [4]: 132 µM (active)
EC50 [5]: 1.55 µM (active)

Cc1ccc(NCCC(=O)c2cccc([N+](=O)[O-])c2)c(C)c1
IC50 [2]: > 50 µM (not active)

CCn1c(NC(=O)c2cccs2)nc2ccccc21
EC50 [4]: 48.8 µM (active)
EC50 [5]: 1.43 µM (active)

CCC(=O)NC(=S)NNC(=O)c1ccc([N+](=O)[O-])cc1
IC50 [3]: > 20 µM (inactive)

COc1ccc(N2C(=O)CSC2c2ccccc2)cc1 (configuration not stated)
AC50 [1]: 1.9 µM (active)

COc1ccc(Cl)cc1/C=N/NC(=O)c1c(-c2ccccc2)noc1C
IC50 [3]: > 20 µM (inactive)

N#C/C(=N\Nc1ccc(S(=O)(=O)N2CCCCCC2)cc1)C(N)=S
EC50 [6]: 22.7 µM (active)
EC50 (Streptokinase A): > 150 µM (not active)
EC50 (Streptococcus): > 150 µM (not active)
IC50 [14]: > 66 µM (inactive)
IC50 [15]: > 66 µM (inactive)

COc1ccc2c(c1)-c1nc(/N=C/c3ccc(O)cc3)sc1CC2
IC50 [2]: > 50 µM (not active)
IC50 [16]: > 47.1 µM (inactive)
EC50 [17]: > 53 µM (inactive)

Cc1cc(/C=N/NC(N)=S)c(C)n1-c1cccc(Cl)c1
EC50 [4]: > 150 µM (inconclusive)
EC50 [5]: 3.69 µM (active)
EC50 [18]: 0.984 µM (active)
EC50 [19]: > 60 µM (not active)

CC(C)(C)[S@@+]([O-])N1Cc2cc(C(=O)NC3CCC3)nc(-c3cccc(Br)c3)c2[C@H]1CCO
AC50 [20]: 5.58 µM (active)

CO[C@@H]1CN(C)C(=O)c2cc(NC(=O)C3CC3)ccc2OC[C@H](C)N(CC2CCCC2)C[C@H]1C
AC50 [20]: 4.45 µM (active)

CCC(=O)N1CC2(CCN(Cc3ccc(Cl)cc3)CC2)c2c(n(C)c3cc(OC)ccc23)[C@@H]1CO
AC50 [20]: 7.31 µM (active)

CN(C)C(=O)c1cccc(-c2ccc3c(c2)[C@H]2[C@H](CCN2C(=O)C2CC2)[C@@H](CO)N3)c1
AC50 [20]: 17.5 µM (active)

CCC(=O)N1CC2(C1)CN(Cc1cc(F)ccc1F)[C@H](CO)c1[nH]c3cc(OC)ccc3c12
AC50 [20]: 5.73 µM (active)

O=C(C1CCC1)N1CC(=O)N2[C@H](CO)[C@@H](c3ccc(C#CCc4ccccc4)cc3)[C@@H]2C1
AC50 [20]: 4.27 µM (active)

CCN1CCN(c2cc(C)c3cc(NC(=O)c4cncc(Br)c4)ccc3n2)CC1
EC50 [21]: 16.2 µM (active)
EC50 [22]: 13.9 µM (active)
